Results reported in patent publication US11414424B2, “Cardiac sarcomere inhibitors” (Cytokinetics, Inc., priority 2018, dated 2022).

Tested on: bovine cardiac myofibrils
Assay: Myofibril assay: PK/LDH-coupled steady-state ATPase activity of skinned bovine cardiac myofibrils
Type: biochemical
Details: Ca2+ activating to 75% of maximal rate
Outline: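 Steady-state ATPase of detergent-skinned bovine left-ventricular myofibrils (1 mg/mL), PK/LDH-coupled NADH read at 340 nm, in PIPES/MgCl2 buffer pH 6.8 with 50 μM ATP, 0.6 mM EGTA and CaCl2 set for 50% or 75% activation. Inhibition of activity measured.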

Q: `CCOC(=O)C12CC(C3C(=O)N(c4ncc(Cl)cc4F)CC(=O)N3Cc3ccc(C(F)(F)F)cc3)(C1)C2` (stereo not drawn) [Compound 782, ethyl 3-(4-(5-chloro-3-fluoropyridin-2-yl)-3,6-dioxo-1-(4-(trifluoro-methyl)benzyl)piperazin-2-yl)bicyclo[1.1.1]pentane-1-carboxylate] was tested. Which “CDMF75 IC15” value did it give?
A: 3.6 µM

Q: How did the “CDMF75 IC15” value turn out when `CC(C)N1CC(=O)N(Cc2ccc(Cl)cc2)C2(CCN(C(N)=O)C2)C1=O` (single isomer, unassigned) [Compound 367B, 6-[(4-chlorophenyl)methyl]-7,10-dioxo-9-(propan-2-yl)-2,6,9-triazaspiro[4.5]decane-2-carboxamide] was run?
A: >39 µM

Q: For `CC(C)N1C(=O)C2(CN(c3ccc(F)cc3)C2)N(Cc2ccc(Cl)cc2)C(=O)C1C` (stereo not drawn) [Compound 20, 5-(4-chlorobenzyl)-2-(4-fluorophenyl)-8-isopropyl-7-methyl-2,5,8-triazaspiro[3.5]nonane-6,9-dione], which “CDMF75 IC15” value is on record?
A: 7.5 µM

Q: How did the “CDMF75 IC15” value turn out when `CC1(CO)C(=O)N(c2ccc(Cl)cc2F)CC(=O)N1Cc1ccc(C(F)(F)F)cc1` (stereo not drawn) [Compound 270, 1-(4-chloro-2-fluorophenyl)-3-(hydroxymethyl)-3-methyl-4-(4-(trifluoro-methyl)benzyl)piperazine-2,5-dione] was run?
A: 1.9 µM

Q: With `O=C1C(C2CC(O)C2)N(Cc2ccc(F)cc2)C(=O)CN1c1ccc(Cl)cc1F` (single isomer, unassigned) [Compound 866A, 1-(4-chloro-2-fluorophenyl)-4-(4-fluorobenzyl)-3-(3-hydroxycyclobutyl)piperazine-2,5-dione] as the compound, how does the “CDMF75 IC15” value read?
A: 4.4 µM

Q: For `CC(C)N1CC(=O)N(Cc2ccc(Cl)cc2)C2(CN(c3ccccc3)C2)C1=O` [Compound 2, 5-(4-chlorobenzyl)-8-isopropyl-2-phenyl-2,5,8-triazaspiro[3.5]nonane-6,9-dione], which “CDMF75 IC15” value is on record?
A: 1.8 µM

Q: For `COc1cnc(N2CC(=O)N(Cc3ccc(C)cc3)C(C3COC3)C2=O)c(F)c1` (stereo not drawn) [Compound 758, 1-(3-fluoro-5-methoxy-pyridin-2-yl)-4-(4-methyl-benzyl)-3-(oxetan-3-yl)-piperazine-2,5-dione], which “CDMF75 IC15” value is on record?
A: 19.4 µM

Q: With `C=C(C)c1ccc(N2CC(=O)N(Cc3ccc(C(F)(F)F)cc3)C3(CN(C(=O)NC)C3)C2=O)cc1` [Compound 161, N-methyl-6,9-dioxo-8-(4-(prop-1-en-2-yl)phenyl)-5-(4-(trifluoromethyl)benzyl)-2,5,8-triazaspiro[3.5]-nonane-2-carboxamide] as the compound, how does the “CDMF75 IC15” value read?
A: 4.7 µM

Q: With `CC(C)N1CC(=O)N(Cc2ccc(C(F)(F)F)cn2)C(c2ccc(Cl)cc2)C1=O` (stereo not drawn) [Compound 315, 3-(4-chlorophenyl)-1-isopropyl-4-((5-(trifluoromethyl)pyridin-2-yl)methyl)piperazine-2,5-dione] as the compound, how does the “CDMF75 IC15” value read?
A: 28.9 µM

Q: For `O=C1CN(c2ccc(Cl)cc2F)C(=O)C2(COC2)N1Cc1ccc(C(F)(F)F)cc1` [Compound 274, 8-(4-chloro-2-fluorophenyl)-5-(4-(trifluoromethyl)-benzyl)-2-oxa-5,8-diazaspiro[3.5]nonane-6,9-dione], which “CDMF75 IC15” value is on record?
A: 1.0 µM

Q: `NC(=O)C12CC([C@@H]3C(=O)N(c4ncc(Cl)cc4F)CC(=O)N3Cc3ccc(Cl)cc3)(C1)C2` [Compound 837, (R)-3-(4-(5-chloro-3-fluoro-pyridin-2-yl)-1-(4-chloro-benzyl)-3,6-dioxo-piperazin-2-yl)bicyclo-[1.1.1]pentane-1-carboxamide] was tested. Which “CDMF75 IC15” value did it give?
A: >39 µM

Q: For `CNc1ccc(N2CC3(C2)C(=O)N(c2ccc(C#N)cc2F)CC(=O)N3Cc2ccc(C(F)(F)F)cc2)cc1` [Compound 538, 3-fluoro-4-(2-(4-(methylamino)phenyl)-6,9-dioxo-5-(4-(trifluoromethyl)benzyl)-2,5,8-triazaspiro[3.5]nonan-8-yl)benzonitrile], which “CDMF75 IC15” value is on record?
A: 0.2 µM

Q: Which “CDMF75 IC15” value does the source give for `Cc1cc(Cl)cnc1N1CC(=O)N(Cc2ccc(F)cc2)C2(CN(c3ccc(C#N)cn3)C2)C1=O` [Compound 887, 6-(8-(5-chloro-3-methyl-pyridin-2-yl)-5-(4-fluoro-benzyl)-6,9-dioxo-2,5,8-triazaspiro[3.5]nonan-2-yl)nicotinonitrile] here?
A: 0.9 µM

Q: How did the “CDMF75 IC15” value turn out when `O=C1C(C23CC(O)(C2)C3)N(Cc2ccc(C(F)F)cc2)C(=O)CN1c1ncc(Cl)cc1F` (stereo not drawn) [Compound 849, 1-(5-chloro-3-fluoropyridin-2-yl)-4-(4-(difluoromethyl)-benzyl)-3-(3-hydroxy-bicyclo[1.1.1]pentan-1-yl)piperazine-2,5-dione] was run?
A: 5.7 µM

Q: For `CC(C)N1CC(=O)N(Cc2ccc(Cl)cn2)C(c2ccc(Cl)cc2)C1=O` (stereo not drawn) [Compound 293, 3-(4-chlorophenyl)-4-((5-chloropyridin-2-yl)methyl)-1-isopropylpiperazine-2,5-dione], which “CDMF75 IC15” value is on record?
A: 36.0 µM

Q: For `O=C1C(C2COC2)N(Cc2ccc(C(F)(F)F)cc2)C(=O)CN1c1ccc(Cl)c(F)c1` (stereo not drawn) [Compound 747, 1-(4-chloro-3-fluorophenyl)-3-(oxetan-3-yl)-4-(4-(trifluoromethyl)benzyl)-piperazine-2,5-dione], which “CDMF75 IC15” value is on record?
A: 3.7 µM

Q: `COC(=O)N1CC2(C1)C(=O)N(C(C)C)CC(=O)N2Cc1ccc(Cl)cc1` [Compound 64, methyl 5-(4-chlorobenzyl)-8-isopropyl-6,9-dioxo-2,5,8-triazaspiro[3.5]-nonane-2-carboxylate] was tested. Which “CDMF75 IC15” value did it give?
A: 23.6 µM

Q: Which “CDMF75 IC15” value does the source give for `CC(C)N1CC(=O)N(Cc2ccc(Cl)cc2)C2(Cc3ccccc3C2)C1=O` [Compound 317, 1′-(4-chlorobenzyl)-4′-isopropyl-1,3-dihydrospiro[indene-2,2′-piperazine]-3′,6′-dione] here?
A: 2.3 µM

Q: How did the “CDMF75 IC15” value turn out when `Cc1ccc(CN2C(=O)CN(C(C)C)C(=O)C23CN(c2ccnc(C)c2)C3)cc1` [Compound 30, 8-isopropyl-5-(4-methylbenzyl)-2-(2-methylpyridin-4-yl)-2,5,8-triazaspiro[3.5]-nonane-6,9-dione] was run?
A: 21.1 µM

Q: For `COC(=O)c1ccccc1N1CC2(C1)C(=O)N(c1ccc(C#N)cc1F)CC(=O)N2Cc1ccc(C(F)(F)F)cc1` [Compound 532, methyl 2-(8-(4-cyano-2-fluorophenyl)-6,9-dioxo-5-(4-(trifluoromethyl)benzyl)-2,5,8-triazaspiro[3.5]nonan-2-yl)benzoate], which “CDMF75 IC15” value is on record?
A: 0.2 µM

Q: For `CC(C)N1CC(=O)N(Cc2ccc(Cl)cc2)C2(CCN(C(N)=O)C2)C1=O` (stereo not drawn) [Compound 120, 6-(4-chlorobenzyl)-9-isopropyl-7,10-dioxo-2,6,9-triazaspiro[4.5]decane-2-carboxamide], which “CDMF75 IC15” value is on record?
A: 18.3 µM

Q: How did the “CDMF75 IC15” value turn out when `CNC(=S)N1CC2(C1)C(=O)N(c1ccc(C#N)cc1)CC(=O)N2Cc1ccc(C(F)(F)F)cc1` [Compound 189, 8-(4-cyanophenyl)-N-methyl-6,9-dioxo-5-(4-(trifluoromethyl)benzyl)-2,5,8-triazaspiro[3.5]-nonane-2-carbothioamide] was run?
A: 1.4 µM

Q: `CC(=O)NCC1(C)C(=O)N(c2ncc(Cl)cc2F)CC(=O)N1Cc1ccc(C(F)(F)F)cc1` (single isomer, unassigned) [Compound 630A, N-((4-(5-chloro-3-fluoropyridin-2-yl)-2-methyl-3,6-dioxo-1-(4-(trifluoromethyl)benzyl)piperazin-2-yl)methyl)acetamide] was tested. Which “CDMF75 IC15” value did it give?
A: 9.7 µM

Q: How did the “CDMF75 IC15” value turn out when `CC(=O)N1CC2(C1)C(=O)N(c1ncc(Cl)cc1F)CC(=O)N2[C@@H](C)c1ccc(C(F)(F)F)cc1` [Compound 570, (S)-2-acetyl-8-(5-chloro-3-fluoropyridin-2-yl)-5-(1-(4-(trifluoromethyl)phenyl)-ethyl)-2,5,8-triazaspiro-[3.5]nonane-6,9-dione] was run?
A: 2.2 µM

Q: With `CC(C)N1CC(=O)N(Cc2ccc(Cl)cc2)C(c2ccc(Cl)cn2)C1=O` (stereo not drawn) [Compound 297, 4-(4-chlorobenzyl)-3-(5-chloropyridin-2-yl)-1-isopropylpiperazine-2,5-dione] as the compound, how does the “CDMF75 IC15” value read?
A: 11.6 µM

Q: How did the “CDMF75 IC15” value turn out when `O=C1C(C2COC2)N(Cc2ccc(C(F)(F)F)cc2)C(=O)CN1c1ccc(Cl)cc1F` (stereo not drawn) [Compound 281, 1-(4-chloro-2-fluorophenyl)-3-(oxetan-3-yl)-4-(4-(trifluoromethyl)benzyl)-piperazine-2,5-dione] was run?
A: 4.3 µM

Q: How did the “CDMF75 IC15” value turn out when `NC(=O)C12CC(C3C(=O)N(c4ncc(Cl)cc4F)CC(=O)N3Cc3ccc(F)cc3)(C1)C2` (stereo not drawn) [Compound 791, 3-(4-(5-chloro-3-fluoro-pyridin-2-yl)-1-(4-fluoro-benzyl)-3,6-dioxopiperazin-2-yl)bicyclo[1.1.1]pentane-1-carboxamide] was run?
A: 2.7 µM

Q: How did the “CDMF75 IC15” value turn out when `CNC(=S)N1CC2(C1)C(=O)N(c1ccc(C#N)c(F)c1)CC(=O)N2Cc1ccc(C(F)(F)F)cc1` [Compound 195, 8-(4-cyano-3-fluorophenyl)-N-methyl-6,9-dioxo-5-(4-(trifluoromethyl)benzyl)-2,5,8-triazaspiro[3.5]nonane-2-carbothioamide] was run?
A: 0.4 µM

Q: `CC(=O)N1CC2(C1)C(=O)N(c1ccc(C#N)cc1F)CC(=O)N2Cc1ccc(F)cc1` [Compound 176, 4-(2-acetyl-5-(4-fluoro-benzyl)-6,9-dioxo-2,5,8-triazaspiro[3.5]nonan-8-yl)-3-fluorobenzonitrile] was tested. Which “CDMF75 IC15” value did it give?
A: 8.5 µM

Q: How did the “CDMF75 IC15” value turn out when `CC(C)CN1CC(=O)N(Cc2ccc(C(F)(F)F)cc2)C2(CN(c3ccc(C#N)cn3)C2)C1=O` [Compound 59, 6-(8-isobutyl-6,9-dioxo-5-(4-(trifluoromethyl)benzyl)-2,5,8-triazaspiro[3.5]-nonan-2-yl)nicotinonitrile] was run?
A: 23.4 µM

Q: For `CC(C)N1CC(=O)N(Cc2ccc(Cl)cc2)C2(CCN(C(=O)Nc3ccccn3)C2)C1=O` (stereo not drawn) [Compound 385, 6-(4-chlorobenzyl)-9-isopropyl-7,10-dioxo-N-(pyridin-2-yl)-2,6,9-triazaspiro[4.5]decane-2-carboxamide], which “CDMF75 IC15” value is on record?
A: >39 µM

Q: For `N#Cc1ccc(N2CC3(C2)C(=O)N(C2CCCC2)CC(=O)N3Cc2ccc(C(F)(F)F)cc2)nc1` [Compound 58, 6-(8-cyclopentyl-6,9-dioxo-5-(4-(trifluoromethyl)benzyl)-2,5,8-triazaspiro[3.5]-nonan-2-yl)nicotinonitrile], which “CDMF75 IC15” value is on record?
A: 4.1 µM

Q: With `CC(C)N1CC(=O)N(Cc2ccc(Cl)cc2)C2(CN(c3cscn3)C2)C1=O` [Compound 32, 5-(4-chlorobenzyl)-8-isopropyl-2-(thiazol-4-yl)-2,5,8-triazaspiro[3.5]-nonane-6,9-dione] as the compound, how does the “CDMF75 IC15” value read?
A: 9.6 µM
